Here are results for two molecules from article PMC9814635 (Communications Chemistry, 2022).

SMILES strings stand for the structures.

One test deals with FGFR1. As to conditions: printed as potency 'toward FGFRs' in the FGFR1 comparison; cited from earlier work.
Another test has as its system parental Ba/F3 cells. The test is described as follows: cells. Particulars: Mus musculus, BaF3, 72 h, read-out: IC50 proliferation, parental Ba/F3 cells. The procedure:
(§1) Cell proliferation and viability were evaluated in parental Ba/F3 cells and TEL-FGFR1-4/FGFR mutation-translocated Ba/F3 cell lines.

For test [1], the system named is FGFR4-translocated Ba/F3 cells. Kind of test: cells. As to conditions: Mus musculus, BaF3, 72 h, read-out: IC50 proliferation, FGFR4 Ba/F3 cells. Here is the method: as §1
For test [2] the following is noted: Phase II FIGHT-202, patients; cited from earlier work.

On to `CCN1CCN(c2ccc(Nc3cc(N(C)C(=O)Nc4c(Cl)c(OC)cc(OC)c4Cl)ncn3)cc2)CC1` [infigratinib, 3-(2,6-dichloro-3,5-dimethoxy-phenyl)-1-{6-[4-(4-ethyl-piperazin-1-yl)-phenylamino]-pyrimidin-4-yl}-1-methyl-urea], for which, in the test on FGFR1, the IC50 was […].

Turning to `CCN1C(=O)N(c2c(F)c(OC)cc(OC)c2F)Cc2cnc3[nH]c(CN4CCOCC4)cc3c21` [pemigatinib], the IC50 in the test on parental Ba/F3 cells is over 5 µM. Moreover, the IC50 in test [1] was 0.012 µM. Besides, in test [2], the complete responses is 2.8%, the disease control rate was 82.0% and the objective response rate is recorded as 35.5%.
